Converted amounts (≈) assume the structure as drawn. Read-outs that look alike come from different tables or passages of the source.
Tests used:
S. cerevisiae = assay: Example I: Saccharomyces cerevisiae growth inhibition (OD 600 nm); type: cell-based; conditions: 18 hour incubation at 30° C., OD 600 nm, XLfit; for IC50: read-out: IC50, uM (50% inhibition of fungal growth); for MIC: read-out: MIC, uM (99% of inhibition of fungal growth)
Procedure: An overnight culture of S. cerevisiae was dilution in YPD broth to concentration of 40,000/ml and 150 μl/well was plated in 96 well plates. Compounds were then added to each well with concentration ranged from 4 to 50 μM as final concentration. The plates were inoculated at 30° C. overnight with shaking at 220 rpm and absorbance at 600 nm was read after 18 hour incubation.
• 1. One days prior to the inoculum preparation, pick a single colony of S. cerevisiae from the Sabouraud Dextrose Agar plate using the inoculum loop and inoculate into a 50 mL tube containing 10 ml of YPD growth medium • 2. Incubate at 30° C. with shaking at 220 rpm for 24 hours with loosen lid to allow air in and facilitates growth. • 3. Examine an aliquot of the culture under a microscope for yeast cell morphology and lack of bacterial contamination. • 4. Dilute the overnight culture with YPD medium at 1:30 dilution (70 ul to 2.1 ml) and count the number of cells as 4,230,000/ml. • 5. Mix 620 μl of 1:30 dilution and 64.4 ml YPD to make final concentration of 40,000/ml cells • 6. Plated 144 μl/well in four 96-well plates.
• 1. From 10 mM DMSO stock solutions, make serial dilutions of compounds to 0.1, 0.2, 0.3, 0.63 and 1.25 mM solutions • 2. Add 6 μl each of diluted compound solutions per well in duplicates. The final concentrations were 0, 4, 8, 12, 25 and 50 micromolar. • 3. Incubated all plates at 30 C for overnight (˜18 hours) with 220 rpm shaking. • 4. Read absorbance at OD600 for each plate on Spectra Max Plus plate reader. • 5. Calculate the % inhibition of each compound against the DMSO treated cell and plotted.

[1] = tested on: 4T1 murine breast cancer cells; assay: Example S: in vitro anticancer screen, 4T1 cells, Wst1; type: cell-based, mouse; conditions: Mus musculus, 4T1, 18 h, 18 hr, Wst1; for viability at 1 µM: read-out: 4T1 1 μM, percent of cancer cell survival relative to vehicle treated cells; for viability at 5 µM: read-out: 4T1 5 μM, percent of cancer cell survival relative to vehicle treated cells
Method in brief: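 4T1 cells seeded at 1×10^4/well were exposed to compound at 1 μM or 5 μM for 18 hr after plating. Wst1 tetrazolium dye was then added for about 2 hr and absorbance read at 450 nm (reference 630 nm). Values are percent survival relative to vehicle-treated cells.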

[2] = tested on: Candida albicans strain 3153; assay: Example H: Candida albicans growth inhibition (OD 600 nm); type: cell-based; conditions: for MIC: Candida albicans, 3153, 24 hrs at 30° C., YPD, XLfit, read-out: MIC (uM) (99% of inhibition of fungal growth); for IC50: Candida albicans, 3153, read-out: IC50 (uM) (50% inhibition of fungal growth), 24 hrs at 30° C., YPD, XLfit
Method in brief: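 Growth inhibition computed as % versus DMSO control from OD600 after ~24 h at 30° C. Inoculum: washed overnight YPD culture of strain 3153 at 3.5×10^4 CFU/ml in YPD; final compound concentrations 0, 5, 10, 16, 22, 30, 40 μM, duplicate wells.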

Trichophyton rubrum = assay: Example J: Trichophyton rubrum growth inhibition, scoring by eye; type: cell-based; conditions: 6 days at 30° C., tested 6 to 40 μM, read-out: MIC, μM (maximum inhibition concentration, scoring by eye)
Procedure: Trichophyton grown on two agar plates were collected by scraping into 10 ml saline and filtered through 8 μm filters. […] This experiment included some active compounds from previous experiment and added several untested compounds. […] Following table listed the maximum inhibition concentration (MIC) based on scoring by eye. Scrape frozen Trichophyton culture from ATCC vial and suspended in 100 μl PDB, and then plate on a PDA plate. Incubate plate at 30 C for 4 days. The plate was covered almost full. […] Take OD of collected solution at 520 nm and 600 nm: […] Part-II: […] Add 6 μl each of diluted compound solutions per well in triplicates. […] Wrap the plates with […] incubate all plates at 30° C. for 6 days. • Take picture of the plates on KODAK imager with 17 captures of 1.5 sec/capture for total of 25.5 second exposure.

THP-1 cells = assay: Example D: LPS-triggered THP-1 cell death assay, acute/5-hour and chronic/48-hour; type: cell-based, Human; conditions: 10 ng/ml LPS, 0.1 μM test compound, 48 hours
Procedure: Compounds of the invention were tested at 0.1 μM versus AC in the LPS-triggered THP-1 cell death assay. Both acute/5-hour and chronic/48-hour phases of cell death were assessed. Compounds were screened in batches with DMSO as the negative control and AC as the high activity control.

[3] = tested on: Cryptococcus neoformans (serotype A); assay: Example L: Cryptococcus neoformans (serotype A) growth inhibition; type: cell-based; conditions: OD of 26 hour reading, 30° C., XLfit; for IC50: read-out: IC50, uM (concentration for 50% of inhibition)
Procedure: Cryptococcus neoformans (serotype A) were plated in 96 well plates with 144 μl/well of 5×10e5 CFU/ml in YPD growth medium. Diluted compounds were then added to each well with concentration ranged from 0.05 to 10 μM as final concentration in duplicates. The plates were inoculated at 30° C. Two readings of OD at 600 nm were measured after 18 hr and […] treatments.
C12-imidazol had relative weak activity against Cryptococcus serotype A at low concentration. Data plotted was based on 26 hour reading because 18 hour reading was too low.
• 1. Pick a single colony of Cryptococcus from the Sabouraud Dextrose agar plate using the inoculum loop and inoculate into a 125 ml flask containing 25 ml of YPD growth medium • 2. Incubate at 30° C. with shaking at 220 rpm for 24 hours with loosen lid to allow air in and facilitates growth. • 3. Examine an aliquot of the culture under a microscope for yeast cell morphology and lack of bacterial contamination. • 4. Dilute the overnight culture with YPD medium at 1:100 dilution and count the number of cells as 8×10^6 cfu/ml. • 5. Make a final concentration of cells suspension at 5×10^5 cfu/ml in YPD medium after the stock culture had been stored at 4° C. for 3 days. • 6. Plate 144 μl/well of 5×10^5 cfu/ml cell suspension on 96-well plates. Part-II: Cryptococcus Growth Inhibition Testing with Compounds • 1. From 10 mM DMSO stock solutions, make serial dilutions of compounds to 0.0013, 0.0025, 0.0125, 0.025, 0.05, 0.125 and 0.25 mM solution • 2. Add 6 ul each of diluted compound solutions per well in duplicates. The final concentrations were 0, 0.05, 0.1, 0.5, 1.0, 2.0, 5.0 and 10 micromolar. • 3. Incubated all plates at 30° C. overnight with 175 rpm shaking. • 4. Read absorbance at OD600 after 18 and 26 hours for each plate. • 5. Calculated the % inhibition and IC50 of each compound against the untreated cell.

[4] = tested on: Cryptococcus neoformans (serotype D); assay: Example K: Cryptococcus neoformans (serotype D) growth inhibition; type: cell-based; conditions: OD of 48 hour reading, 37° C., tested 4 to 60 μM, XLfit; for IC50: read-out: IC50 (concentration for 50% of inhibition)
Procedure: Cryptococcus neoformans (serotype D) were plated in 96 well plates with 144 μl/well of 8×10e5 CFU/ml in YM growth medium. Diluted compounds were then added to each well with concentration ranged from 4 to 60 μM as final concentration in duplicates. The plates were inoculated at 37° C. for total of 48 hours. Two readings of OD at 600 nm were measured after 30 and 48 hour treatments.
• 1. Pick a single colony of Cryptococcus from the YM agar plate using the inoculum loop and inoculate into a 125 ml flask containing 25 ml of YM growth medium. • 2. Incubate at 37° C. with shaking at 220 rpm for 24 hours with loosen lid to allow air in and facilitates growth. • 3. Examine an aliquot of the culture under a microscope for yeast cell morphology and lack of bacterial contamination. • 4. Dilute the overnight culture with YM medium at 1:100 dilution and count the number of cells as 1×10^6 cfu/ml. • 5. Make a final concentration of cells suspension at 8×10^5 cfu/ml in YM medium. • 6. Plate 144 μl/well of 8×10^5 cfu/ml cell suspension on 96-well plates. Part-II: Cryptococcus Growth Inhibition Testing with Compounds • 1. From 10 mM DMSO stock solutions, make serial dilutions of compounds to 0.1, 0.2, 0.3, 0.5, 1.0 and 1.5 mM solution. • 2. Add 6 ul each of diluted compound solutions per well in duplicates. The final concentrations were 0, 4, 8, 12, 20, 40 and 60 micromolar. • 3. Incubated all plates at 37° C. overnight (30 hours) with 150 rpm shaking. • 4. Read absorbance at OD600 for each plate. • 5. Leave plates in 37° C. incubator for another day and read absorbance at OD600 again at 48 hours to ensure the inhibitory effect of the compounds. • 6. Calculated the % inhibition and IC50 of each compound against untreated cells.

[5] = tested on: PC-3 prostate cancer cells; assay: Example T: sensitisation of PC-3 cells to doxorubicin, oxaliplatin, paclitaxel or vincristine, Wst1; type: cell-based, human; conditions: PC-3 cells, 72 hours
[6] = tested on: PC3 human prostate cancer cells; assay: Example S: in vitro anticancer screen, PC-3 cells, Wst1; type: cell-based; conditions: Homo sapiens, PC-3; 0.5 μM, approximately 20 hours, Wst1; read-out: PC-3, percent of cancer cell survival relative to vehicle treated cells
Method in brief: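 PC-3 cells, 2×10^4 cells/well, exposed ~20 h to vehicle or compound at 0.4, 0.5 or 2.5 μM as specified per compound. Wst1 dye added for 2 h; absorbance 450 nm (reference 630 nm), triplicates. Values are percent cell survival versus vehicle-treated cells.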

SMILES	IC50 (S. cerevisiae; Saccharomyces cerevisiae) [µM]	MIC (S. cerevisiae; Saccharomyces cerevisiae) [µM]	viability at 1 µM [1] [%]	viability at 5 µM [1] [%]	MIC [2] [µM]	IC50 [2] [µM]	MIC (Trichophyton rubrum; Trichophyton rubrum, 144 h) [µM]	Viable cell percent change, Chronic/48-hour, Mean (THP-1 cells) [%]	other results
CCCCCCOC(=O)c1ccc(Nc2ccnc3ccccc23)cc1 [AP, Hexyl 4-(quinolin-4-ylamino)benzoate]	26.3	46.5 (≈ 16.2 µg/mL)	110	246	42 (≈ 14.6 µg/mL)	25	~40 (≈ 13.9 µg/mL)	37.38	–
CCCCCCCCCCOc1ccc(CNc2ncnc3ccccc23)cc1 [BN, N-[4-(Decyloxy)benzyl]quinazolin-4-amine]	–	–	–	–	–	–	–	60.91	IC50 ([3]; Cryptococcus neoformans): 3.73 µM; MIC ([3]; Cryptococcus neoformans, read-out: MIC, uM (concentration for maximum - 99% of inhibition)): 56.1 µM (≈ 22 µg/mL); IC50 ([4]; Cryptococcus deneoformans): 1.03 µM
CCCCCCCCn1cnc2cnc3ccccc3c21 [BP, 1-Octyl-1H-imidazo[4,5-c]quinoline]	35.6	50.8 (≈ 14.3 µg/mL)	33.6	23.3	90.6 (≈ 25.5 µg/mL)	28.8	12 (≈ 3.38 µg/mL)	–	viability at 0.5 µM ([5]; Homo sapiens, compound 0.5 μM alone, Wst1, vehicle = 100, read-out: No Chemo: percent cell survival): 50.5%; Doxorubicin 3.5 μM: percent cell survival ([5]; compound 0.5 μM + doxorubicin 3.5 μM, chemotherapy agent alone normalized to 100%): 79.1%; Oxaliplatin 100 μM: percent cell survival ([5]; compound 0.5 μM + oxaliplatin 100 μM, chemotherapy agent alone normalized to 100%): 113.6%; Paclitaxel 50 μM: percent cell survival ([5]; compound 0.5 μM + paclitaxel 50 μM, chemotherapy agent alone normalized to 100%): 95.1%; Vincristine 100 nM: percent cell survival ([5]; compound 0.5 μM + vincristine 100 nM, chemotherapy agent alone normalized to 100%): 93%; viability at 0.5 µM [6]: 50.5%
CCCCCCCCCCCCn1ccnc1 [Compound C12-Im, reference compound]	–	–	–	–	–	–	–	–	MIC, uM (concentration for maximum - 99% of inhibition) [3]: 10.83 µM; IC50 [3]: 3.67 µM; MIC, uM (99% of inhibition of fungal growth) (S. cerevisiae): 29.04 µM; IC50 (S. cerevisiae): 15.2 µM; MIC (concentration for maximum-99% of inhibition) [4]: 20.54; IC50 [4]: 1.81 µM; MIC (Trichophyton rubrum): 18 µM (≈ 4.26 µg/mL)
